According to patent publication US20180296542A1, “IMINOSUGARS FOR IMPROVING BONE MINERAL DENSITY IN BONE DISEASE” (Saint Louis University, priority 2015, published 2018):
Where “and” joins values, the source holds several entries; their conditions need not be identical. Equal entries are not always repeated. Entries after “also recorded” stand apart in the source; their conditions may differ.

Assays:
[1] = test system: TNSALP-null (Akp2^−/−) mice, in vivo model of infantile HPP (wild-type, heterozygous, homozygous); test: MicroCT bone mineral density of femur cortical bone after one month of Miglustat (Example 1); conditions: for Mean/Density [mg HA/ccm] of TV (Apparent) (BMD), individual mice: femur diaphysis cortical bone, one value per mouse
Procedure: -null (Akp2^-/-) mice served as an in vivo model of infantile HPP to analyze the effects of Miglustat as a treatment for HPP through BMD measurements. […] Resembling patients with HPP, elevated substrate concentrations of PEA, PPi, and PLP were found in urine samples from knock-out mice. […] All experiments were conducted with the highest standards of humane animal care at Saint Louis University under an approved IACUC protocol. Mice were genotyped as wild-type, heterozygous, or homozygous through DNA extraction, polymerase chain reaction (PCR), and gel electrophoresis. After DNA was extracted from an ear tissue sample, PCR was used to generate copies of the DNA for gel electrophoresis (2% agarose and Tris-Acetate-EDTA (TAE) buffer). The following primers were used: [NT] ID NO:1), [NT] ID NO:2), [NT] ID NO:3, wild-type allele: 160 bp, mutant allele: 195 bp). At the age of one month, mice were administered 100 μL injections of phosphate-buffered saline (PBS) with 0 mg/kg, 400 mg/kg, or 1200 mg/kg of Miglustat (250 mg/mL) to the peritoneal cavity for gradual diffusion of the drug. Mice were massed each day to adjust Miglustat dosages to body weight. Intraperitoneal injections (IP) continued daily for one month before mice were euthanized with CO2 at the age of two months. Mice were on a Pyridoxine Supplement Diet (“Vitamin B6 Diet”) to prevent seizures. […] (Systems EngineeringTM) was provided every alternating day to prevent dehydration. Urine samples were collected once a week and blood samples were collected from cheek tissue at the beginning and end of treatment. Full-body ventral and side-view x-rays were taken after euthanizing the mice. The left anatomical legs were dissected to obtain the femoral bones. Femurs were then frozen before being placed in 10% formalin the day prior to microCT scanning. Four bones were inserted into a gel cast (2.5% agarose and TAE buffer) at a time and covered with 2.5% agarose and TAE buffer to create gel capsules that were placed in sample tubes (diameter: 11.5 mm, height: 75 mm) for microCT scanning Cortical bone scans (voxel size: 12 μm) were performed at the diaphysis (femoral shaft) using a SCANCO μCT 35 system (SCANCO Medical; Brü[…], Switzerland). MicroCT scans were analyzed using SCANCO Medical microCT software to produce three dimensional reconstructions of the bones and determine bone mineral density (BMD) as the mean/density [mg HA/ccm] of total volume (TV) (Apparent). The total length of each bone was measured as the distance from the greater trochanter to the distal end. Only the middle 20% of each femur was accounted for during cortical bone analysis. Statistical analysis included calculating the average mean/density [mg HA/ccm] of TV (Apparent) and standard error for each treatment group to determine the estimated standard deviation of the statistics. Standard deviation and standard error were not calculated for homozygous mice due to count values below three. Full-body ventral and side x-rays were taken and microCT scans were performed on the femurs of each mouse. The bone mineral densities of the femurs were recorded in units of hydroxyapatite density as the mean/density [mg HA/ccm] of TV (apparent). The average bone mineral densities (average mean/density [mg HA/ccm] of TV (apparent) were then calculated for each treatment group. Statistical analysis, including standard deviation and standard error, was only performed for the wild-types and heterozygotes due to insufficient data for the homozygous mice. A minimum of three mice were required for statistical analysis.

[2] = test system: TNSALP-null (Akp2^−/−) mice, in vivo model of bone disease (WT, Het, KO); test: MicroCT of femur cortical bone (Example 2); conditions: for Normalized bone area-cortical bone volume fraction: FIG. 17
Procedure: (§1) TNSALP-null (Akp2^−/−) mice served as an in vivo model of bone disease to analyze the effects of the iminosugar, Miglustat.
(§2) Mice were obtained, bred and genotyped as described above. Five mice of each genotype (Wild-type (WT), heterozygous (Het), and homozygous (KO)) were included in each treatment group (i.p. administration of PBS, 400 mg/kg Miglustat, and 1200 mg/kg Miglustat as described above). A total of 44 mice were analyzed (1 Akp2^−/− homozygous mouse was omitted in the PBS group). Mice were scanned using microCT and analyzed as described above. Cortical bone in the middle 20% of bone length from trochanter to distal condyles in the femur was scanned and cortical thickness and bone mineral density were obtained. Cortical thickness (Ct.Th, μm) was used as an indication of average thickness of cortical bone. Trabecular bone of the final 625 μm before the femoral growth plate was scanned.
As depicted in FIG. 14, Miglustat improved cortical thickness in heterozygous mice at 400 mg/kg. […] Cortical bone area (Ct.Ar, mm^2) was determined by dividing cortical volume by the number of slices X slice thickness. As depicted in FIG. 16, cortical bone area increased in Wild-type (WT) and Heterozygotes (Het) administered 400 mg/kg Miglustat. […] In Homozygotes administered 1,200 mg/kg normalized bone area-cortical bone volume fraction decreased.
The attenuation depended on physical density and electron density of bone. As depicted in FIG. 18, high doses of Miglustat improved tissue mineral density in Heterozygotes.

[3] = test system: TNSALP-null (Akp2^−/−) mice, in vivo model of bone disease (WT, Het, KO); test: MicroCT of femur trabecular bone (Example 2)
Procedure: as §1, §2
Bone volume fraction is the ratio of the segmented bone volume to the total volume of the region of interest.
Trabecular thickness was measured as illustrated in FIG. 23. […] Trabecular separation is the mean distance between trabeculae assessed using direct 3D methods as illustrated in FIG. 25.
As depicted in FIG. 26, the trabecular number changed with Miglustat in both heterozygotes and homozygotes treated with Miglustat. As depicted in FIG. 27, structure model index (SMI) increased in homozygous AKP mice treated with Miglustat. […] SMI represents an indicator of the structure of the trabeculae. SMI will be zero for parallel plates and 3 for cylindrical rods.
Connectivity density is a measure of the degree of connectivity of trabeculae normalized by total volume.

[4] = homozygous mice, Miglustat 400 mg/kg

Compound: CCCCN1C[C@H](O)[C@@H](O)[C@H](O)[C@H]1CO [Miglustat, (2R,3R,4R,5S)-1-butyl-2-(hydroxymethyl)piperidine-3,4,5-triol]
- Average BMD with Miglustat dosage versus PBS groups (in words) ([1]; across genotypes, except wild-type mice at 1200 mg/kg, one month of treatment, 1200 mg/kg): higher average BMDs; also recorded: BMD increased with Miglustat dosage; also recorded: higher average BMD values
- Average BMD versus PBS heterozygotes (in words) ([1]; heterozygous mice, Miglustat 400 mg/kg): slight improvement; also recorded: higher average BMD value
- Mean/Density [mg HA/ccm] of TV (Apparent) (BMD), individual mice ([1]; heterozygous mice, Miglustat 400 mg/kg IP daily for one month): 983.17 mg HA/ccm and 937.07 mg HA/ccm and 968.62 mg HA/ccm
- Average Mean/Density [mg HA/ccm] of TV (Apparent) (average BMD) ([1]; heterozygous mice, Miglustat 400 mg/kg, n=3, ± standard error): 962.95±13.61 mg HA/ccm and 962.95 mg HA/ccm
- Average BMD versus PBS heterozygotes and PBS wild-types (in words) ([1]; heterozygous mice, Miglustat 1200 mg/kg): even greater improvement; also recorded: match or even surpass; also recorded: matched and surpassed
- Mean/Density [mg HA/ccm] of TV (Apparent) (BMD), individual mice ([1]; heterozygous mice, Miglustat 1200 mg/kg IP daily for one month): 980.88 mg HA/ccm and 984.82 mg HA/ccm and 979.78 mg HA/ccm and 1006.65 mg HA/ccm
- Average Mean/Density [mg HA/ccm] of TV (Apparent) (average BMD) ([1]; heterozygous mice, Miglustat 1200 mg/kg, n=4, ± standard error): 988.03±6.30 mg HA/ccm and 988.03 mg HA/ccm
- Differences in mineralization in microCT scans between treatments ([1]; heterozygous mice, PBS vs 400 vs 1200 mg/kg Miglustat): not discernable
- Mean/Density [mg HA/ccm] of TV (Apparent) (BMD), individual mice ([1]; homozygous (Akp2^−/−) mice, Miglustat 400 mg/kg IP daily for one month): 881.08 mg HA/ccm and 1054.98 mg HA/ccm
- Average Mean/Density [mg HA/ccm] of TV (Apparent) (average BMD) ([1]; homozygous (Akp2^−/−) mice, Miglustat 400 mg/kg, n=2): 968.03 mg HA/ccm
- Average BMD versus knockouts on PBS (in words) [1, 4]: substantial difference; also recorded: higher average BMD
- Cortical bone mineralization at the diaphysis in microCT scans [1, 4]: improper cortical bone mineralization
- Average BMD versus other treatment groups (in words) ([1]; wild-type mice, Miglustat 400 mg/kg): greater; also recorded: increased; also recorded: highest average BMD
- Mean/Density [mg HA/ccm] of TV (Apparent) (BMD), individual mice ([1]; wild-type mice, Miglustat 400 mg/kg IP daily for one month): 1000.00 mg HA/ccm and 990.58 mg HA/ccm and 991.31 mg HA/ccm and 1004.30 mg HA/ccm and 995.88 mg HA/ccm
- Average Mean/Density [mg HA/ccm] of TV (Apparent) (average BMD) ([1]; wild-type mice, Miglustat 400 mg/kg, n=5, ± standard error): 996.41±2.60 mg HA/ccm and 996.41 mg HA/ccm
- Average BMD versus PBS wild-type group (in words) ([1]; wild-type mice, Miglustat 1200 mg/kg): no change
- Mean/Density [mg HA/ccm] of TV (Apparent) (BMD), individual mice ([1]; wild-type mice, Miglustat 1200 mg/kg IP daily for one month): 973.20 mg HA/ccm and 985.09 mg HA/ccm and 969.63 mg HA/ccm and 967.00 mg HA/ccm
- Average Mean/Density [mg HA/ccm] of TV (Apparent) (average BMD) ([1]; wild-type mice, Miglustat 1200 mg/kg, n=4, ± standard error): 974.48±3.63 mg HA/ccm and 974.48 mg HA/ccm
- Total cross sectional area inside the periosteal envelope (Tt.Ar) ([2]; Heterozygotes, 400 mg/kg, FIG. 15): slight increase
- Tissue mineral density ([2]; Heterozygotes, high doses, FIG. 18): improved
- Normalized bone area-cortical bone volume fraction ([2]; Homozygotes, 1,200 mg/kg): decreased
- Cortical bone area (Ct.Ar) ([2]; Wild-type (WT) and Heterozygotes (Het), 400 mg/kg, FIG. 16): increased
- Normalized bone area-cortical bone volume fraction ([2]; Wild-type and Heterozygotes): did not have an effect
- Cortical thickness (Ct.Th) ([2]; heterozygous mice, 400 mg/kg, FIG. 14): improved
- Trabecular separation (Tb.Sp), femur ([3]; FIG. 24): decrease
- Appearance of trabeculae (microCT images) ([3]; Homozygotes (KO), 400 and 1200 mg/kg, FIGS. 20A-20D): restore the appearance of narrow trabeculae
- Overall bone volume (bone volume fraction), femur ([3]; after treatment, FIG. 21): not significantly increased
- Trabecular number (Tb.N), femur ([3]; heterozygotes and homozygotes, FIG. 26): changed
- Connectivity density (Conn. D), femur ([3]; heterozygotes or homozygotes, FIG. 28): did not change
- Trabecular thickness (Tb.Th), femur ([3]; homozygotes, FIG. 22): lower
- Structure model index (SMI), femur ([3]; homozygous AKP mice, FIG. 27): increased
